Data taken from PubChem BioAssay AID256 (DTP/NCI, 2004).
Values joined by “and” are separate entries in the source; they are usually repeats but may differ in a detail not shown here. Identical values can stand only once. Toxic doses and inconclusive results are not listed. The calls were made as follows: active = survival T/C of 150% or more; inactive = T/C below 125% in these data.

Test system: CD2F1 mice, L1210 leukemia ip, survival T/C
Experiment: NCI In Vivo Anticancer Drug Screen. Data for tumor model L1210 Leukemia (intraperitoneal) in CD2F1 (CDF1) mice
Conditions: higher = longer survival
Procedure, shortened: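 Antitumor effect is scored in animals hosting a serially transplanted tumor. Values compare compound-dosed animals against vehicle-only controls as a simple quotient.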

[1] = endpoint: mean survival time, dose: 25.0 mg/kg/injection, schedule: Q04DX002 (ip), vehicle: saline with Tween-80
[2] = endpoint: mean survival time, dose: 50.0 mg/kg/injection, schedule: Q04DX002 (ip), vehicle: saline with Tween-80
[3] = endpoint: mean survival time, dose: 100.0 mg/kg/injection, schedule: Q04DX002 (ip), vehicle: saline with Tween-80
[4] = endpoint: mean survival time, dose: 200.0 mg/kg/injection, schedule: Q04DX002 (ip), vehicle: saline with Tween-80
[5] = endpoint: mean survival time, dose: 400.0 mg/kg/injection, schedule: Q04DX002 (ip), vehicle: saline with Tween-80
[6] = endpoint: mean survival time, dose: 6.25 mg/kg/injection, schedule: Q01DX009 (ip), vehicle: saline with Tween-80
[7] = endpoint: mean survival time, dose: 100.0 mg/kg/injection, schedule: Q04DX003 (ip), vehicle: saline with Tween-80
[8] = endpoint: mean survival time, dose: 200.0 mg/kg/injection, schedule: Q04DX003 (ip), vehicle: saline with Tween-80
[9] = endpoint: mean survival time, dose: 400.0 mg/kg/injection, schedule: Q04DX003 (ip), vehicle: saline with Tween-80
[10] = endpoint: mean survival time, dose: 100.0 mg/kg/injection, schedule: Q01DX001 (ip), vehicle: saline with Tween-80
[11] = endpoint: mean survival time, dose: 200.0 mg/kg/injection, schedule: Q01DX001 (ip), vehicle: saline with Tween-80
[12] = endpoint: mean survival time, dose: 400.0 mg/kg/injection, schedule: Q01DX001 (ip), vehicle: saline with Tween-80
[13] = endpoint: mean survival time, dose: 100.0 mg/kg/injection, schedule: Q04DX002 (ip), vehicle: saline
[14] = endpoint: mean survival time, dose: 200.0 mg/kg/injection, schedule: Q04DX002 (ip), vehicle: saline
[15] = endpoint: mean survival time, dose: 400.0 mg/kg/injection, schedule: Q04DX002 (ip), vehicle: saline
[16] = endpoint: mean survival time, dose: 100.0 mg/kg/injection, schedule: Q01DX009 (ip), vehicle: saline with Tween-80
[17] = endpoint: mean survival time, dose: 200.0 mg/kg/injection, schedule: Q01DX009 (ip), vehicle: saline with Tween-80
[18] = endpoint: mean survival time, dose: 400.0 mg/kg/injection, schedule: Q01DX009 (ip), vehicle: saline with Tween-80

Measured: T/C

CN(C(=O)Nc1cccc([N+](=O)[O-])c1)c1ccccc1
inactive: endpoint: mean survival time, dose: 100.0 mg/kg/injection, schedule: Q01DX001 (ip), vehicle: saline 102 % of control | endpoint: mean survival time, dose: 200.0 mg/kg/injection, schedule: Q01DX001 (ip), vehicle: saline 98 % of control | endpoint: mean survival time, dose: 400.0 mg/kg/injection, schedule: Q01DX001 (ip), vehicle: saline 98 % of control

CCN=C(N)C(N)=NCC (tested in a mixture with another compound)
inactive: [1] 98 % of control | [2] 98 % of control | [3] 93 % of control and 98 % of control | [4] 96 % of control and 87 % of control | [5] 93 % of control

NC(CS(=O)c1ccc(Cl)cc1)C(=O)O (stereo not drawn)
inactive: [6] 90 % of control | endpoint: mean survival time, dose: 12.5 mg/kg/injection, schedule: Q01DX009 (ip), vehicle: saline with Tween-80 94 % of control | endpoint: mean survival time, dose: 25.0 mg/kg/injection, schedule: Q01DX009 (ip), vehicle: saline with Tween-80 96 % of control

CCC(O)(c1ccccc1)C(O)(CC)c1ccccc1 (stereo not drawn)
inactive: [2] 96 % of control | [3] 86 % of control

CN(C)NC(=O)CC(NCc1ccccc1)C(=O)O (stereo not drawn)
inactive: [7] 102 % of control | [8] 101 % of control | [9] 98 % of control

CCCCNCCC#N
inactive: [7] 102 % of control | [8] 95 % of control | [9] 98 % of control

CCN(CC)Cc1cc(Nc2c3ccc(Cl)cc3nc3ccc(OC)nc23)ccc1O
inactive: endpoint: mean survival time, dose: 25.0 mg/kg/injection, schedule: Q01DX001 (ip), vehicle: saline with Tween-80 94 % of control | endpoint: mean survival time, dose: 50.0 mg/kg/injection, schedule: Q01DX001 (ip), vehicle: saline with Tween-80 94 % of control | [10] 90 % of control | [11] 95 % of control | [12] 91 % of control

CCOC(C)C(O)(c1ccc(N(C)C)cc1)c1ccc(N(C)C)cc1 (stereo not drawn)
inactive: endpoint: mean survival time, dose: 100.0 mg/kg/injection, schedule: Q04DX003 (ip), vehicle: other 95 % of control | endpoint: mean survival time, dose: 200.0 mg/kg/injection, schedule: Q04DX003 (ip), vehicle: other 91 % of control | endpoint: mean survival time, dose: 400.0 mg/kg/injection, schedule: Q04DX003 (ip), vehicle: other 97 % of control

COC(=O)/C=C\n1cnc2ccccc21
inactive: endpoint: mean survival time, dose: 75.0 mg/kg/injection, schedule: Q01DX009 (ip), vehicle: other 95 % of control | endpoint: mean survival time, dose: 150.0 mg/kg/injection, schedule: Q01DX009 (ip), vehicle: other 101 % of control | endpoint: mean survival time, dose: 300.0 mg/kg/injection, schedule: Q01DX009 (ip), vehicle: other 110 % of control

NCC1OC(OC2C(CO)OC(OC3C(O)C(N)CC(N)C3OC3OC(CO)C(O)CC3N)C2O)C(N)C(O)C1OC1OC(CO)C(O)C(O)C1O (stereo not drawn)
inactive: [13] 98 % of control | [14] 92 % of control | [15] 95 % of control

Cn1c(C(N)=O)cc(=O)n1-c1ccccc1
inactive: endpoint: mean survival time, dose: 100.0 mg/kg/injection, schedule: Q01DX001 (ip), vehicle: saline sonified 102 % of control | [16] 107 % of control | endpoint: mean survival time, dose: 200.0 mg/kg/injection, schedule: Q01DX001 (ip), vehicle: saline sonified 96 % of control | [17] 103 % of control | endpoint: mean survival time, dose: 400.0 mg/kg/injection, schedule: Q01DX001 (ip), vehicle: saline sonified 98 % of control | [18] 105 % of control

CCOC(=O)CCC(NC(=O)c1ccc(N(CC)Cc2cnc3nc(N)nc(N)c3n2)cc1)C(=O)OCC (stereo not drawn)
active: endpoint: mean survival time, dose: 1.56 mg/kg/injection, schedule: Q01DX009 (ip), vehicle: Klucel (hydroxypropylcellulose) (HPC) 152 % of control

O=C1CCCC1(c1ccccc1)c1ccccc1
inactive: [16] 101 % of control | [7] 91 % of control | [17] 101 % of control | [8] 91 % of control | [18] 95 % of control | [9] 94 % of control

O=[N+]([O-])c1ccccc1N=C(c1ccccc1)N(O)c1ccccc1
inactive: endpoint: mean survival time, dose: 9.4 mg/kg/injection, schedule: Q01DX009 (ip), vehicle: saline with Tween-80 101 % of control | endpoint: mean survival time, dose: 9.4 mg/kg/injection, schedule: Q04DX003 (ip), vehicle: saline with Tween-80 98 % of control | endpoint: mean survival time, dose: 18.8 mg/kg/injection, schedule: Q01DX001 (ip), vehicle: saline 101 % of control | endpoint: mean survival time, dose: 18.8 mg/kg/injection, schedule: Q01DX009 (ip), vehicle: saline with Tween-80 104 % of control | endpoint: mean survival time, dose: 18.8 mg/kg/injection, schedule: Q04DX003 (ip), vehicle: saline with Tween-80 100 % of control | endpoint: mean survival time, dose: 37.5 mg/kg/injection, schedule: Q01DX001 (ip), vehicle: saline 102 % of control

COC1OC(C)CC(C)(C)O1 (stereo not drawn)
inactive: [13] 89 % of control | [14] 96 % of control | [15] 100 % of control

CC(=O)C(=O)O.CC(=O)C(=O)O.[NH-]C1CCCCC1[NH-].[Pt+2] (stereo not drawn)
inactive: endpoint: mean survival time, dose: 1.56 mg/kg/injection, schedule: Q04DX003 (ip), vehicle: other 109 % of control | endpoint: mean survival time, dose: 12.5 mg/kg/injection, schedule: Q04DX003 (ip), vehicle: other 120 % of control | endpoint: median survival time, dose: 25.0 mg/kg/injection, schedule: Q01DX009 (ip), vehicle: dextrose 87 % of control

O=NN(CCCl)C(=S)NCCCl
inactive: endpoint: mean survival time, dose: 1.87 mg/kg/injection, schedule: Q01DX001 (ip), vehicle: distilled water + Tween-80 113 % of control | endpoint: mean survival time, dose: 3.75 mg/kg/injection, schedule: Q01DX001 (ip), vehicle: distilled water + Tween-80 115 % of control
active: endpoint: mean survival time, dose: 15.0 mg/kg/injection, schedule: Q01DX001 (ip), vehicle: distilled water + Tween-80 159 % of control and 215 % of control | endpoint: mean survival time, dose: 30.0 mg/kg/injection, schedule: Q01DX001 (ip), vehicle: distilled water + Tween-80 318 % of control

O=S(=O)(F)c1cc(C[P+](c2ccccc2)(c2ccccc2)c2ccccc2)ccc1Cl
inactive: endpoint: mean survival time, dose: 6.25 mg/kg/injection, schedule: Q04DX003 (ip), vehicle: saline with Tween-80 104 % of control | endpoint: mean survival time, dose: 12.5 mg/kg/injection, schedule: Q04DX003 (ip), vehicle: saline with Tween-80 104 % of control | endpoint: mean survival time, dose: 25.0 mg/kg/injection, schedule: Q04DX003 (ip), vehicle: saline with Tween-80 116 % of control

O=C(O)CCc1cccnc1
inactive: [16] 95 % of control | [17] 104 % of control | [18] 111 % of control

Cc1nc(N)[nH]c(=O)c1CCCNCc1ccncc1
inactive: [10] 87 % of control | [11] 91 % of control | [12] 90 % of control

CC(=O)OCC1OC(n2ccc(-n3cncn3)nc2=O)CC1N=[N+]=[N-] (stereo not drawn)
inactive: endpoint: median survival time, dose: 12.5 mg/kg/injection, schedule: Q01DX005 (ip), vehicle: saline with Tween-80 101 % of control | endpoint: median survival time, dose: 25.0 mg/kg/injection, schedule: Q01DX005 (ip), vehicle: saline with Tween-80 104 % of control | endpoint: median survival time, dose: 50.0 mg/kg/injection, schedule: Q01DX005 (ip), vehicle: saline with Tween-80 98 % of control | endpoint: median survival time, dose: 100.0 mg/kg/injection, schedule: Q01DX005 (ip), vehicle: saline with Tween-80 94 % of control | endpoint: median survival time, dose: 200.0 mg/kg/injection, schedule: Q01DX005 (ip), vehicle: saline with Tween-80 93 % of control

Cc1ccc(S(=O)(=O)N(C)c2cc([N+](=O)[O-])ccc2Br)cc1
inactive: [3] 95 % of control | [4] 103 % of control | [5] 114 % of control

CC(=O)Oc1ccc2ccccc2c1-c1c(OC(C)=O)ccc2ccccc12
inactive: [1] 101 % of control | [2] 101 % of control | [3] 101 % of control

O=C[N]([Hg][Cl])c1ccccc1
inactive: [6] 86 % of control

CC(C)NCC(O)COc1ccc(O)c(O)c1 (stereo not drawn)
inactive: endpoint: median survival time, dose: 12.5 mg/kg/injection, schedule: Q01DX009 (ip), vehicle: saline 101 % of control | endpoint: median survival time, dose: 25.0 mg/kg/injection, schedule: Q01DX009 (ip), vehicle: saline 97 % of control and 101 % of control | endpoint: median survival time, dose: 50.0 mg/kg/injection, schedule: Q01DX009 (ip), vehicle: saline 98 % of control and 107 % of control | endpoint: median survival time, dose: 100.0 mg/kg/injection, schedule: Q01DX009 (ip), vehicle: saline 107 % of control and 112 % of control | endpoint: median survival time, dose: 200.0 mg/kg/injection, schedule: Q01DX009 (ip), vehicle: saline 90 % of control
